Entries after “also recorded” stand apart in the source; their conditions may differ. Where a SMILES comes first, the peptide text is derived from it. [ ]: non-standard residue; d: D form.
Experiments:
[1] = test system: cerebellar granule neurons; assay: Live/Dead (Red/Green) viability assay in cultured cerebellar granule neurons; type: cell-based, rat; conditions: 24 h peptide treatment, HK medium
Method: Neuronal cultures were switched to serum-free medium T-peptide, K-peptide, Core-peptide, V-peptide. VV-peptide, and T (L)-peptide. All peptides were used at 25 μM concentration. Phase contrast micrographs show appearance of the cultures after 24 h of peptide treatment. The Live/Dead viability assay was also performed. Nuclei of dead cells are stained red whereas cytoplasm of living cells are stained green. In the case of sick and dying cells, green staining is condensed;
(§1) Cerebellar granule neurons were switched to serum-free medium containing various concentrations of T-peptide, K-peptide, Core-peptide, V-peptide, VV-peptide, and T (L)-peptide. Cell viability was measured using two independent methods 24 h after peptide treatment and results are graphed. * indicates p<0.05 compared with control cells that were treated with HK: (4A) Results from Red/Green viability assay, (4B) Results from MTT assay;
Culturing and treatment of neurons: Cerebellar granule neurons were cultured from 7-8 day old rats as previously described. The neurons were plated in 24-well with poly-L-lysine coated glass coverslips at a density of ˜1 million cells/well in Basal Eagle's Medium with Earle's salts (BME) supplemented with 10% FCS, 25 mM KCl, 2 mM glutamine and […] gentamicin. To prevent mitosis of glial cells, cytosine arabinofuranoside ([…]) was added to culture 16-20 hrs after plating. Neuronal cultures were treated with peptides 6-7 days after plating. For treatment, the cultures were switched to serum-free medium containing 25 mM KCl (referred to as high potassium or HK medium). Although serum is required for proper maturation, after 5 days in culture, the neurons survive normally in the absence of serum provided depolarizing levels of KCl is added.
Cell viability quantification: Cell viability was quantified using the Live/Dead assays with a commercially available kit (Invitrogen). This is a two-color fluorescence assay utilizing two cell-permeable compounds, calcein acetoxymethyl (calcein AM) and ethidium homodimer-1 (EthD-1). Live cells have intracellular esterases that convert non-fluorescent calcein AM to the intensely green fluorescent calcein, which is retained within the cytoplasm of cells. Because dead cells have damaged membranes, EthD-1 enters and is fluorescent when bound to nucleic acids. EthD-1 stains the nuclei of damaged or dead cells. As recommended by the manufacturer, cells plated in wells with cover-slips were incubated in Live/Dead reagent (1 uM calcein AM and 4 uM EthD-1) for 30 min, and then mounted on slides. Cell viability was also analyzed using the MTT [3-(4,5-Dimethylthiazol-2-yl)-2,5-diphenyltetrazolium bromide] assay based on the evaluation of mitochondrial function. MTT assays were performed as previously described. Briefly, MTT (5 mg/ml in culture medium) was added to the culture medium and the cells incubated at 37° C. for 1 h. The assay was stopped by adding lysis buffer [20% sodium dodecyl sulfate (SDS) in 50% N,N-dimethylformamide, pH 4.7]. Absorbance was measured spectrophotometrically at 570 nm after an overnight incubation at room temperature.

[2] = test system: cerebellar granule neurons; assay: MTT assay in cerebellar granule neurons; type: cell-based, rat; conditions: 24 h peptide treatment
Method: as §1
Culturing and treatment of neurons: Cerebellar granule neurons were cultured from 7-8 day old rats as previously described. The neurons were plated in 24-well with poly-L-lysine coated glass coverslips at a density of ˜1 million cells/well in Basal Eagle's Medium with Earle's salts (BME) supplemented with 10% FCS, 25 mM KCl, 2 mM glutamine and […] gentamicin. […]
Cell viability quantification: Cell viability was quantified using the Live/Dead assays with a commercially available kit (Invitrogen). This is a two-color fluorescence assay utilizing two cell-permeable compounds, calcein acetoxymethyl (calcein AM) and ethidium homodimer-1 (EthD-1). […] Cell viability was also analyzed using the MTT [3-(4,5-Dimethylthiazol-2-yl)-2,5-diphenyltetrazolium bromide] assay based on the evaluation of mitochondrial function. […] Absorbance was measured spectrophotometrically at 570 nm after an overnight incubation at room temperature.

[3] = Polymerization kinetics by Thioflavin S (ThS) fluorescence in the presence of heparin; type: physicochemical; conditions: for A (first phase / growth curve): ST-peptide according to Eqn. [2]
Method: Aggregation kinetics of T-peptide (filled triangles), V-peptide (filled diamonds), F-peptide (X), Core peptide (open triangles), VV-peptide (open diamonds) and K-peptide (filled circles). […] Solid lines represent fitted values;
Kinetic analysis: Polymerization kinetics were measured by monitoring the increase in Thioflavin S (ThS) fluorescence at 490 nm (440 nm excitation). Slit widths were 15 and 20 nm respectively for excitation and emission. All measurements were carried out at 21° C. with a Perkin Elmer LS50B spectrofluorimeter using a 75 μL quartz cell. Data points were collected at 6 s intervals over the course of the experiment (60 min). In order to initiate polymerization a freshly filtered stock solution was diluted to 10 μM in 200 μL of Buffer A containing 33 μM heparin (Sigma-Aldrich; 3,000 MW) and 100 μM Thioflavin S (ThS). Kinetics data, corrected for the blank, were fit using a non-linear least squares algorithm to a Gompertz-like growth curve {{260 Necula, M. 2004}} (Eqn.)
where y is defined as the fluorescence signal at time t, ti corresponds to the inflection point of the curve, or the time of maximum growth rate, A is the maximum fluorescence observed for a given sample, and b=1/k, where k is the rate constant of aggregation, in units of s^−1. Lag-times were calculated as ti−b. The pre-growth curve exponential, e^(−k′t) was inserted to take into account the slow decrease in fluorescent intensity resulting from ThS bleaching, quenching and gravitational precipitation of the amyloid-ThS complex. Standard errors in fitted parameters were estimated assuming a 10% error in the sum of the squares.

[4] = previously shown [19, 20]; cited from earlier work
[5] = test system: culture; assay: Neurotoxicity of non-tau related aggregating peptides in culture; type: cell-based; conditions: FIG. 13
Description: FIG. 13 is an image of the non-tau related aggregating peptides are not neurotoxic.

[6] = Transmission electron microscopy (TEM) of peptide aggregates; type: physicochemical; conditions: 100 μM peptide in Buffer A, uranyl acetate stain
Method: All peptides were prepared at 100 μM in Buffer A and stained with uranyl acetate;
Transmission Electron Microscopy (TEM): Filtered stock peptide solutions were diluted to 100 μM in 5 mM MOPS containing 0.1% NaN3, 0.15 M NaCl, pH 7.2 (Buffer A) and were incubated at room temperature overnight. Samples were loaded onto carbon-coated Formvar copper grids (200 mesh) and stained with 2% wt/wt uranyl acetate. A JEOL 1200 EX scope interfaced to a digital camera was used to visualize samples.

## CC(=O)N[C@@H](CCCNC(=N)N)C(=O)N[C@@H](CCCNC(=N)N)C(=O)N[C@@H](CCCNC(=N)N)C(=O)N[C@@H](CCCNC(=N)N)C(=O)N[C@@H](CCCNC(=N)N)C(=O)N[C@@H](CCCNC(=N)N)C(=O)N[C@@H](CCCNC(=N)N)C(=O)N[C@@H](CCCNC(=N)N)C(=O)N[C@@H](CCCNC(=N)N)C(N)=O [Ac—R9—NH2, reference compound]
[1]
  neurotoxicity / effect on neuronal survival: no effect on neuronal survival

## CC[C@@H](C)[C@@H](NC(=O)[C@@H](CCC(N)=O)NC(=O)[C@H](NC(C)=O)C(C)C)C(=O)N[C@@H](C(=O)N[C@H](Cc1ccc(O)cc1)C(=O)N[C@H](CCCCN)C(N)=O)C(C)C [Core-peptide, Ac-vqivyk-NH2] (Ac-[dV][dQ][dI][dV][dY][dK]-NH2)
[1]
  neurotoxicity / effect on neuronal survival: not toxic
[2]
  MTT assay result (mitochondrial function, words): mitochondrial dysfunction

## CC[C@@H](C)[C@@H](NC(=O)[C@@H](CCC(N)=O)NC(=O)[C@H](NC(C)=O)C(C)C)C(=O)N[C@@H](C(=O)N[C@H](CCCCN)C(=O)N[C@H](CCCCN)C(=O)N[C@@H](CCCNC(=N)N)C(=O)N[C@@H](CCCNC(=N)N)C(=O)N[C@@H](CCCNC(=N)N)C(=O)N[C@@H](CCCNC(=N)N)C(=O)N[C@@H](CCCNC(=N)N)C(=O)N[C@@H](CCCNC(=N)N)C(=O)N[C@@H](CCCNC(=N)N)C(=O)N[C@@H](CCCNC(=N)N)C(=O)N[C@@H](CCCNC(=N)N)C(N)=O)C(C)C [K-peptide, Ac-vqivkk-R9—NH2]
[1]
  neurotoxicity / effect on neuronal survival: neither K-peptide nor VV-peptide reduced neuronal survival

## CC(=O)N[C@@H](C(=O)N[C@H](CCC(N)=O)C(=O)N[C@@H](C(=O)N[C@@H](C(=O)N[C@H](Cc1ccc(O)cc1)C(=O)N[C@H](CCCCN)C(=O)N[C@@H](CCCNC(=N)N)C(=O)N[C@@H](CCCNC(=N)N)C(=O)N[C@@H](CCCNC(=N)N)C(=O)N[C@@H](CCCNC(=N)N)C(=O)N[C@@H](CCCNC(=N)N)C(=O)N[C@@H](CCCNC(=N)N)C(=O)N[C@@H](CCCNC(=N)N)C(=O)N[C@@H](CCCNC(=N)N)C(=O)N[C@@H](CCCNC(=N)N)C(N)=O)C(C)C)C(C)C)C(C)C [V-peptide, Ac-vqvvyk-R9—NH2]
[1]
  neurotoxicity / effect on neuronal survival: moderate level of cell death

## CC(=O)N[C@@H](C(=O)N[C@H](CCC(N)=O)C(=O)N[C@@H](C(=O)N[C@@H](C(=O)N[C@@H](C(=O)N[C@H](CCCCN)C(=O)N[C@@H](CCCNC(=N)N)C(=O)N[C@@H](CCCNC(=N)N)C(=O)N[C@@H](CCCNC(=N)N)C(=O)N[C@@H](CCCNC(=N)N)C(=O)N[C@@H](CCCNC(=N)N)C(=O)N[C@@H](CCCNC(=N)N)C(=O)N[C@@H](CCCNC(=N)N)C(=O)N[C@@H](CCCNC(=N)N)C(=O)N[C@@H](CCCNC(=N)N)C(N)=O)C(C)C)C(C)C)C(C)C)C(C)C [VV-peptide, Ac-vqvvvkR9—NH2]
[1]
  neurotoxicity / effect on neuronal survival: neither K-peptide nor VV-peptide reduced neuronal survival

## Ac-VQIVFK-R9—NH2 (Ac-VQIVFKRRRRRRRRR-NH2) [F-peptide]
[1]
  neurotoxicity / effect on neuronal survival: induces toxicity
[3]; 10 μM peptide, 33 μM heparin, 100 μM ThS, Buffer A pH 7.2, 21° C., NA = no aggregation observed by ThS fluorescence, ±10% error
  A (maximum fluorescence, fitted kinetic parameter): 5.5
[3]; ThS fluorescence, heparin, 10 μM concentration
  self-aggregation in vitro: aggregate in a fashion similar to the Core peptide; also recorded: capable of self-aggregation in vitro

## Ac-^306VQIVYK^311-NH2 [AcPHF6]
[4]
  critical concentration above which peptide polymerizes into amyloid fibrils: about 2 μM

## SQIVYA-R9 (SQIVYARRRRRRRRR) [SQ-peptide, de novo non-tau aggregating peptide]
[3]; ThS fluorescence
  A (first phase / growth curve): 8.8
[5]
  neurotoxicity in culture: neither of these two peptides displayed neurotoxicity
[6]
  morphology of aggregates: irregular non-uniform filaments similar to V-peptide

## STVIIE-R9 (STVIIERRRRRRRRR) [ST-peptide, non-tau aggregating peptide previously described by Pastor et al, reference compound]
[3]; ThS fluorescence
  lag time: ~3000 s
  A (first phase / growth curve): 4.9
[3]; according to Eqn. [2]
  A′ (second period of more rapid aggregation): 6.3
[5]
  neurotoxicity in culture: neither of these two peptides displayed neurotoxicity
[6]; overnight
  diameter of fibrils / filaments / amyloid bodies / fibers: 10-40 nm
[6]
  morphology of aggregates: amyloid sheets which appear to roll into irregular fibers
